According to publication PMC3265452 (PLoS Neglected Tropical Diseases, 2012):
Where a name gives a salt, the structure may show the parent alone. Read-outs that look alike come from different tables or passages of the source.

Target: AaDOP2 (Aedes aegypti, UniProt H6D5H2)
Experiment: AaDOP2 antagonist screen of the LOPAC1280 library (HEK-CRELuc-Aadop2 cells, luminescence)
Assay type: cell-based
[1] = 10 µM compound, 300 nM dopamine, 2 hr, hit = compound effect <20

Sequence of AaDOP2 (H6D5H2 1-476): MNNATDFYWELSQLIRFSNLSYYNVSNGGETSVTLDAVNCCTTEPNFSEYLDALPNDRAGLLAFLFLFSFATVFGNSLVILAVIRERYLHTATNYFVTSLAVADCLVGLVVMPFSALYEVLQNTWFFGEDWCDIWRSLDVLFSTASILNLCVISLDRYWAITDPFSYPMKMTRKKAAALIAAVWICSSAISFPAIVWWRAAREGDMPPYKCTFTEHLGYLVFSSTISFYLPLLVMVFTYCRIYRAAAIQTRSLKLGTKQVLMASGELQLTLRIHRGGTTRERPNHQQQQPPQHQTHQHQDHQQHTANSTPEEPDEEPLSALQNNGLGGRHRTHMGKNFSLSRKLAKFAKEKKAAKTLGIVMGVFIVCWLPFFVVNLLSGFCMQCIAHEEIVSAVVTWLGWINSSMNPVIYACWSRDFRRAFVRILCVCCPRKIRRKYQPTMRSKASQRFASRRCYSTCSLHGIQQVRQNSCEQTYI

| Compound | Compound effect (percent receptor signaling in presence of test compound, relative lux units relative to the SCH23390 control) | Compound effect (percent receptor signaling in presence of test compound, relative lux units relative to the SCH23390 control) [1] [%] | inhibition at 10 µM (read-out: % of the SCH23390 effect (percent inhibition of receptor response relative to the SCH23390 control)) [%] |
| --- | --- | --- | --- |
| S=C=Nc1cccc(C2(N3CCCCC3)CCCCC2)c1 [Compound 821, Metaphit methanesulfonate] | 93 |  |  |
| C[C@](N)(Cc1ccc(O)c(O)c1)C(=O)O [Compound 822, L-alpha-Methyl DOPA] |  | 98 |  |
| CC[C@@H](CO)NC(=O)[C@@H]1C=C2c3cccc4c3c(cn4C)C[C@H]2N(C)C1 [Compound 823, Methysergide maleate] | 82 |  |  |
| CNC(=O)OCC[N+](C)(C)C [Compound 824, Methylcarbamylcholine chloride] | 103 |  |  |
| CSc1ccc2c(c1)C(N1CCN(C)CC1)Cc1ccccc1S2 (stereo not drawn) [Compound 825, Methiothepin mesylate] | 1 |  | 99 |
| CN1C[C@@H](NS(=O)(=O)N(C)C)C[C@@H]2c3cccc4c3c(cn4C)C[C@H]21 [Compound 827, Mesulergine hydrochloride] | 88 |  |  |
| CC(C)N(CCC(=O)c1ccc2ccccc2c1)Cc1ccccc1.Cl [Compound 829, ZM 39923 hydrochloride] |  | 83 |  |
| Cl.N=c1c[n+](N2CCOCC2)[n-]o1 [Compound 830, 3-Morpholinosydnonimine hydrochloride] | 90 |  |  |
| COc1ccc2c(c1)[C@@]13CCCC[C@H]1[C@@H](C2)NCC3.Cl [Compound 831, 3-Methoxy-morphanin hydrochloride] | 94 |  |  |
| COc1ccccc1N1CCN(CCN(C(=O)c2ccc(I)cc2)c2ccccn2)CC1.Cl [Compound 832, p-MPPI hydrochloride] |  | 73 |  |
| O=C(O)/C(=C/c1c(C(=O)O)[nH]c2cc(Cl)cc(Cl)c12)c1ccccc1 [Compound 833, MDL 105,519] | 83 |  |  |
| Cc1ccccc1CNc1ncnc2c1ncn2[C@@H]1O[C@H](CO)[C@@H](O)[C@H]1O [Compound 834, Metrifudil] | 96 |  |  |
| COc1ccccc1N1CCN(CCN(C(=O)c2ccc(F)cc2)c2ccccn2)CC1.Cl.Cl [Compound 835, p-MPPF dihydrochloride] |  | 81 |  |
| O=C(O)c1cccnc1Nc1cccc(C(F)(F)F)c1 [Compound 837, Niflumic acid] | 90 |  |  |
| CS(=O)(=O)Nc1ccc([N+](=O)[O-])cc1Oc1ccccc1 [Compound 838, Nimesulide] | 88 |  |  |
| O=C(CCNNC(=O)c1ccncc1)NCc1ccccc1 [Compound 839, Nialamide] | 87 |  |  |
| CN1Cc2c(N)cccc2C(c2ccccc2)C1 (stereo not drawn) [Compound 840, Nomifensine maleate] | 42 |  |  |
| Cl.Cl.Oc1ccc2c3c1O[C@H]1c4[nH]c5c(c4C[C@@]4(O)[C@@H](C2)N(CC2CC2)CC[C@]314)C[C@@]1(O)[C@H]2Cc3ccc(O)c4c3[C@@]1(CCN2CC1CC1)[C@H]5O4 [Compound 841, nor-Binaltorphimine dihydrochloride] | 98 |  |  |
| CN(C)C(=O)Oc1cccc([N+](C)(C)C)c1 [Compound 842, Neostigmine bromide] | 100 |  |  |
| CC1(C)CCC(NC(=O)[C@@H](N)CCC(=O)O)CC1 [Compound 843, CR 2249] | 92 |  |  |
